Laboratory results taken from US20220249441A1, “Homodimeric Tobramycin Adjuvant Repurposes Novobiocin as an Effective Antibacterial Agent Against Gram-Negative Bacteria” (priority 2019, published 2022).
In brackets after ≈: the same amount, converted by molar mass.

Tests used:
[1] = test system: A. baumannii ATCC 17978 and resistant mutants; assay: microbe, parasite or virus in culture; assay type: cell-based, Acinetobacter baumannii; settings: Acinetobacter baumannii
Method: Antimicrobial Susceptibility Assay. The in vitro antimicrobial activity of all compounds/antibiotics against a panel of bacteria was evaluated by microbroth dilution method in accordance with the Clinical and Laboratory Standards Institute (CLSI) guidelines (using ATCC strains as quality control strains) (54). Overnight grown bacterial cultures were diluted in saline to achieve a 0.5 McFarland turbidity, followed by 1:50 dilution in Mueller-Hinton broth (MHB) for inoculation to a final concentration of approximately 5×10^5 CFU/mL. […] The lowest concentration that prevented the visible growth of bacteria was defined as the MIC for each antimicrobial agent. The broth with or without bacterial cells was used as positive or negative control, respectively.
Development of Resistance Study. […] Tobramycin and colistin were included as controls. At 24-hour intervals, the cultures were assessed for growth. […] This serial passaging was repeated for 8 days.

K. pneumoniae 116381 = assay: Time-kill assay; assay type: cell-based, Klebsiella pneumoniae; settings: LB media, novobiocin 32 μg/ml, compound 1 7.1 μM, 24 h
Method: (§1) Time-kill Assay. […] At specific time intervals (0, 1, 3, 6, 9, and 24 h), 100 μl was taken from each sample, serially diluted in sterile PBS, plated on LB agar plates, and incubated at 37° C. in a humid 5% CO2-enriched atmosphere. Bacterial colonies were counted after 20 h of incubation.

A. baumannii ATCC 17978 = assay: Time-kill assay; assay type: cell-based, Acinetobacter baumannii; settings: novobiocin 32 μg/ml, after 24 h
Method: as §1

E. coli ATCC 25922 = assay: Time-kill assay; assay type: cell-based, Escherichia coli; settings: novobiocin 32 μg/ml, compound 1 7.1 μM
Method: as §1

[2] = test system: P. aeruginosa PAO1 and efflux deficient mutants, MDR/XDR isolates; assay: microbe, parasite or virus in culture; assay type: cell-based, Pseudomonas aeruginosa
Method: Antimicrobial Susceptibility Assay. The in vitro antimicrobial activity of all compounds/antibiotics against a panel of bacteria was evaluated by microbroth dilution method in accordance with the Clinical and Laboratory Standards Institute (CLSI) guidelines (using ATCC strains as quality control strains) (54). […] The broth with or without bacterial cells was used as positive or negative control, respectively.

P. aeruginosa PAO1 = assay: Outer membrane permeabilization assay (NPN uptake); assay type: cell-based, Pseudomonas aeruginosa
Method: Outer Membrane Permeabilization Assay. […] Briefly, an overnight grown P. aeruginosa PAO1 culture was subcultured (1 in 100) in fresh LB broth and grown to a mid-logarithmic phase (approximately 2 h, OD600=0.5-0.6). The cells were harvested by centrifuging for 10 min at 1000 g and room temperature, washed twice in PBS, and resuspended in half volume of PBS. This suspension was used in standard microtiter plate assay. […] PMBN, a known outer membrane permeabilizer, served as a positive control while cells +NPN (without test compounds) served as a negative control. Four independent replicates were conducted, and the data were corrected for any background fluorescence.

CO[C@@H]1[C@@H](OC(N)=O)[C@@H](O)[C@H](Oc2ccc3c(O)c(NC(=O)c4ccc(O)c(CC=C(C)C)c4)c(=O)oc3c2C)OC1(C)C [Novobiocin]
MIC ([1]; ATCC17978, 18 h, Mutant C (seven serial passages, sub-MICs novobiocin + 7.1 μM compound 1)): 128 µg/mL
MIC ([1]; ATCC17978, Mutant A (seven serial passages, sub-MICs novobiocin)): 2050 µg/mL (≈ 3.34 mM)
MIC ([1]; ATCC17978, Mutant B (seven serial passages, sub-MICs colistin)): < 0.031 µg/mL
time-kill outcome (K. pneumoniae 116381): bacterial growth identical to their respective controls
time-kill outcome (A. baumannii ATCC 17978): bacteriostatic
incubation time after which bactericidal (E. coli ATCC 25922): 24 h

NC[C@H]1O[C@H](O[C@H]2[C@H](OCCCCc3cn(CCCCO[C@@H]4[C@@H](O[C@H]5O[C@H](CO)[C@@H](O)[C@H](N)[C@H]5O)[C@H](N)C[C@H](N)[C@H]4O[C@H]4O[C@H](CN)[C@@H](O)C[C@H]4N)nn3)[C@@H](O[C@H]3O[C@H](CO)[C@@H](O)[C@H](N)[C@H]3O)[C@H](N)C[C@@H]2N)[C@H](N)C[C@@H]1O.O=C(O)C(F)(F)F.O=C(O)C(F)(F)F.O=C(O)C(F)(F)F.O=C(O)C(F)(F)F.O=C(O)C(F)(F)F.O=C(O)C(F)(F)F.O=C(O)C(F)(F)F.O=C(O)C(F)(F)F.O=C(O)C(F)(F)F.O=C(O)C(F)(F)F [Compound 1, Tobramycin Homodimer 1]
MIC of Compound 1 ([2]; PAO1 (wild-type)): >128 µg/mL
MIC of Compound 1 ([2]; PAO200 (efflux-deficient)): >128 µg/mL
MIC of Compound 1 ([2]; PAO750 (efflux-deficient)): >128 µg/mL
outer membrane permeabilization (NPN fluorescence) (P. aeruginosa PAO1): dose-dependent
NPN fluorescence relative to PMBN (8 μg/ml) (P. aeruginosa PAO1; compound 1 at 16 μg/ml): increased fluorescence
